Measurements: patent US8623851B2 (Mylan Specialty L.P., priority 2001, dated 2014)
Like-named read-outs stand apart in the source and are kept apart here.

Legend:
[1] = Decomposition kinetics (stability) of formoterol in aqueous solution; format: physicochemical
From the text: In the embodiments herein, the compositions have a pH of about 2.0 to about 8.0. The particular pH of a given composition for long term storage provided herein may be determined empirically using standard stability assays well known to those of skill in the art (see, e.g., the Examples). […] In certain of the above embodiments, the compositions are formulated at a pH of about 4, 4.4 or 4.6 up to about 5.5, 5.7 or 6. In other embodiments, the pH is about 5.0.
In other of the above embodiments, the compositions further contain a buffer, including, but not limited to, citric acid/phosphate, acetate, barbital, borate, Britton-Robinson, cacodylate, citrate, collidine, formate, maleate, Mcilvaine, phosphate, Prideaux-Ward, succinate, citrate-phosphate-borate (Teorell-Stanhagen), veronal acetate, MES (2-(N-morpholino)ethanesulfonic acid), BIS-TRIS (bis(2-hydroxyethyl)imino-tris-(hydroxymethyl)methane), ADA (N-(2-acetamido)-2-iminodiacetic acid), ACES (N-(carbamoylmethyl)-2-aminoethanesulfonaic acid), PIPES (piperazine-N,N′-bis(2-ethanesulfonic acid)), MOPSO (3-(N-morpholino)-2-hydroxypropanesulfonic acid), BIS-TRIS PROPANE (1,3-bis(tris(hydroxy-methyl)methylamino)propane), BES (N,N-bis(2-hydroxyethyl)-2-amino-ethanesulfonaic acid), MOPS (3-(N-morpholino)propanesulfonic acid), TES (N-tris(hydroxymethyl)methyl-2-aminoethanesulfonic acid), HEPES (N-(2-hydroxyethyl)piperazine-N′-(2-eth-anesulfonic acid), DIPSO (3-(N,N-bis(2-hydroxyethyl)amino)-2-hydroxypropan-esulfonicacid), MOBS (4-(N-morpholino)butanesulfonic acid), TAPSO (3-(N-tris(hydroxymethyl)methyl-amino)-2-hydroxypropanesulfonic acid), TRIZMA® (tris(hydroxymethyl-aminomethane), HEPPSO(N-(2-hydroxyethyl)piperazine-N′-(2-hydroxy-propanesulfonic acid), POPSO (piperazine-N,N′-bis(2-hydroxypropane-sulfonic acid)), TEA (triethanolamine), EPPS (N-(2-hydroxyethyl)-piperazine-N′-(3-propanesulfonic acid), TRICINE (N-tris(hydroxy-methyl)methylglycine), GLY-GLY (glycylglycine), BICINE (N,N-bis(2-hydroxyethyl)glycine), HEPBS (N-(2-hydroxyethyl)piperazine-N′-(4-butanesulfonic acid)), TAPS(N-tris(hydroxymethyl)methyl-3-amino-propanesulfonic acid), AMPD (2-amino-2-methyl-1,3-propanediol), and/or any other buffers known to those of skill in the art. In one embodiment, the buffer is citric acid/phosphate buffer, acetate buffer, citrate buffer or phosphate buffer. In another embodiment, the buffer is a citrate buffer (citric acid/sodium citrate). […] Buffer concentrations for use herein include from about 0 or 0.01 mM to about 150 mM, or about 1 mM to about 20 mM. In one embodiment, the buffer concentration is about 5 mM. In another embodiment, the buffer concentration is about 1 mM to about 50 mM, or about 20 mM. […] The particular buffer and buffer concentration of a given composition for long term storage provided herein may be determined empirically using standard stability assays well known to those of skill in the art (see, e.g., the Examples).
Ionic strengths of the compositions provided herein are from about 0 to about 0.4, or from about 0.05 to about 0.16. […] The particular ionic strength of a given composition for long term storage provided herein may be determined empirically using standard stability assays well known to those of skill in the art (see, e.g., the Examples).

[2] = Estimated shelf-life of formoterol in the compositions (Arrhenius kinetics); format: physicochemical
[3] = system: patients with reversible obstructive respiratory diseases; conditions: cited from earlier work

SMILES: COc1ccc(CC(C)NCC(O)c2ccc(O)c(NC=O)c2)cc1 (racemic) [formoterol, 2-hydroxy-5-((1RS)-1-hydroxy-2-(((1RS)-2-(p-methoxyphenyl)-1-methylethyl)amino)ethyl)formanilide]
- aqueous solubility (pH between about 5 and about 7, ambient temperature): approximately 2.2 mg/mL
- aqueous solubility (pH of about 3, ambient temperature): about 4.8 mg/mL
- aqueous solubility (pH of about 4, ambient temperature): approximately 3 mg/mL
- solubility in pure water (pure water (HPLC water), ambient temperature): approximately 2 mg/mL
- pH at which decomposition is slowest ([1]; aqueous solution, 60° C., buffer concentration 5 mM, ionic strength 0.05): about 5.0
- rate constant (kobs) for decomposition ([1]; aqueous solution, 60° C., pH 3, buffer concentration 5 mM, ionic strength 0.05): approximately 0.62 day^−1
- rate constant (kobs) for decomposition ([1]; aqueous solution, 60° C., pH 4, buffer concentration 5 mM, ionic strength 0.05): ~0.11 day⁻¹
- rate constant (kobs) for decomposition ([1]; aqueous solution, 60° C., pH 5, buffer concentration 5 mM, ionic strength 0.05): ~0.044 day⁻¹
- rate constant (kobs) for decomposition ([1]; aqueous solution, 60° C., pH 7, buffer concentration 5 mM, ionic strength 0.05): ~0.55 day⁻¹
- effect of buffer concentration on rate constant of decomposition ([1]; low and approximately neutral pH conditions, buffer concentration 5 mM to 20 mM): increased the rate constant of decomposition significantly
- effect of buffer concentration on rate constant of decomposition ([1]; pH region of about 4.5 to about 5.5, buffer concentration 5 mM to 20 mM): no noticeable differences in rate constant were observed
- estimated shelf-life ([2]; 5° C.): about 6.2 years
- estimated shelf-life ([2]; 25° C.): about 7.5 months
- duration of bronchodilatory effect [3]: greater than 12 hours
- onset of bronchodilatory effect [3]: 1 to 3 min
